Measurements as given in ChEMBL document CHEMBL5608196, “1,3,5-Triazine as a promising scaffold in the development of therapeutic agents against breast cancer” (Eur J Med Chem, 2024).
Blank lines part the entries; values can stand above or below the compound they belong to.

Experiments:
[1] = biological target: Serine/threonine-protein kinase mTOR (Homo sapiens, UniProt P42345); test: Inhibition of mTOR (unknown origin)
[2] = test system: MCF7; test: Cytotoxicity against human MCF7 cells
[3] = Inhibition of PI3K (unknown origin); parameters: species or system Homo sapiens
[4] = test system: MCF7; test: Anticancer activity against human MCF7 cells incubated for 48 hrs by MTT assay; conditions: MCF7, 48 h
[5] = test system: MCF7; test: Cytotoxicity against human MCF7 cells assessed as cell growth inhibition incubated for 72 hrs by MTT assay; assay type: functional, cell-based; conditions: MCF7, 72 h
[6] = test system: MDA-MB-231; test: Cytotoxicity against human MDA-MB-231 cells incubated for 72 hrs by MTT assay; assay type: functional, cell-based; conditions: MDA-MB-231, 72 h
[7] = test system: MCF7; test: Anticancer activity against human MCF7 cells; assay type: functional, cell-based
[8] = test system: MCF7; test: Anti-proliferative activity against human MCF7 cells by MTT assay; assay type: functional, cell-based
[9] = biological target: Carbonic anhydrase 9 (Homo sapiens, UniProt Q16790); test: Inhibition of human CA-IX
[10] = biological target: T1, Epidermal growth factor receptor (Homo sapiens, UniProt P00533); test: Inhibition of EGFR (unknown origin) using Poly (Glu, Tyr) as substrate at 10 uM incubated for 40 mins in presence of ATP by Kinase-Glo Plus luminescence kinase assay relative to control
T1 sequence (P00533 whole entry): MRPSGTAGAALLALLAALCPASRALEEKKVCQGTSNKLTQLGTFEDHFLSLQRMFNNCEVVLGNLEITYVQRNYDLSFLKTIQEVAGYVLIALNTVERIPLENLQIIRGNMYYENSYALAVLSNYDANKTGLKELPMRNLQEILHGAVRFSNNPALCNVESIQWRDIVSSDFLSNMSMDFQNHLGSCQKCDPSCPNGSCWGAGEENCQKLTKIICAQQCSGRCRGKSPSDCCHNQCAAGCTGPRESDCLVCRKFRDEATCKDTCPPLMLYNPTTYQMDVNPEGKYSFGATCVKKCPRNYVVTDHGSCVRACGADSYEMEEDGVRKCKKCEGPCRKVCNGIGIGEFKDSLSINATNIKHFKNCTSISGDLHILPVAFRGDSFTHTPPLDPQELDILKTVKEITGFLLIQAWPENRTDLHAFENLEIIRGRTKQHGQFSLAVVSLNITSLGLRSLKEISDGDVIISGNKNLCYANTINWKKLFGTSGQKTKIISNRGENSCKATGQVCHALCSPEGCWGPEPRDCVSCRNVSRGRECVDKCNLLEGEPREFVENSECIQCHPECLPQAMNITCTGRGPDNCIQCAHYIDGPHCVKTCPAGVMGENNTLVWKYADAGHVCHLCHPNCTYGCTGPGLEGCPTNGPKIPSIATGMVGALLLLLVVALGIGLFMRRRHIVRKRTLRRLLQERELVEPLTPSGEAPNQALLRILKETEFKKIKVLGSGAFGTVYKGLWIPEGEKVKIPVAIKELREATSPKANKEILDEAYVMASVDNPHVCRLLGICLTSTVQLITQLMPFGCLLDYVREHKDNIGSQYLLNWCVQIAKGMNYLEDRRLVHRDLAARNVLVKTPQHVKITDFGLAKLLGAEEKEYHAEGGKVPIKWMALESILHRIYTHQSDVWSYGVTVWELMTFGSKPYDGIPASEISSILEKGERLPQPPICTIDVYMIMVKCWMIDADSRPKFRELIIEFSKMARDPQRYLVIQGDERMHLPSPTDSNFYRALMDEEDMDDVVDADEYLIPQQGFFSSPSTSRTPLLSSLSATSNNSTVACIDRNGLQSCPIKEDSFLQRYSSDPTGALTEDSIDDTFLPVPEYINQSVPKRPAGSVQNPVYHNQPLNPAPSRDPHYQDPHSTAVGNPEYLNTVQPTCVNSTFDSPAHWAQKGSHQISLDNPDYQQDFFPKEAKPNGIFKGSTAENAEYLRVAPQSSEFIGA

[11] = test system: MCF7; test: Anticancer activity against human MCF7 cells incubated for 24 hrs by MTT assay; assay type: functional, cell-based; conditions: MCF7, 24 h
[12] = test system: MCF7; test: Anti-cancer activity against human MCF7 cells; assay type: functional, cell-based
[13] = test system: MCF7; test: Anticancer activity against human MCF7 cells incubated for 24 to 72 hrs by MTT assay; assay type: functional, cell-based
[14] = biological target: T2, Phosphatidylinositol 4,5-bisphosphate 3-kinase catalytic subunit alpha isoform (Homo sapiens, UniProt P42336); test: Inhibition of PI3K-alpha (unknown origin)
T2 sequence (P42336 whole entry, canonical isoform): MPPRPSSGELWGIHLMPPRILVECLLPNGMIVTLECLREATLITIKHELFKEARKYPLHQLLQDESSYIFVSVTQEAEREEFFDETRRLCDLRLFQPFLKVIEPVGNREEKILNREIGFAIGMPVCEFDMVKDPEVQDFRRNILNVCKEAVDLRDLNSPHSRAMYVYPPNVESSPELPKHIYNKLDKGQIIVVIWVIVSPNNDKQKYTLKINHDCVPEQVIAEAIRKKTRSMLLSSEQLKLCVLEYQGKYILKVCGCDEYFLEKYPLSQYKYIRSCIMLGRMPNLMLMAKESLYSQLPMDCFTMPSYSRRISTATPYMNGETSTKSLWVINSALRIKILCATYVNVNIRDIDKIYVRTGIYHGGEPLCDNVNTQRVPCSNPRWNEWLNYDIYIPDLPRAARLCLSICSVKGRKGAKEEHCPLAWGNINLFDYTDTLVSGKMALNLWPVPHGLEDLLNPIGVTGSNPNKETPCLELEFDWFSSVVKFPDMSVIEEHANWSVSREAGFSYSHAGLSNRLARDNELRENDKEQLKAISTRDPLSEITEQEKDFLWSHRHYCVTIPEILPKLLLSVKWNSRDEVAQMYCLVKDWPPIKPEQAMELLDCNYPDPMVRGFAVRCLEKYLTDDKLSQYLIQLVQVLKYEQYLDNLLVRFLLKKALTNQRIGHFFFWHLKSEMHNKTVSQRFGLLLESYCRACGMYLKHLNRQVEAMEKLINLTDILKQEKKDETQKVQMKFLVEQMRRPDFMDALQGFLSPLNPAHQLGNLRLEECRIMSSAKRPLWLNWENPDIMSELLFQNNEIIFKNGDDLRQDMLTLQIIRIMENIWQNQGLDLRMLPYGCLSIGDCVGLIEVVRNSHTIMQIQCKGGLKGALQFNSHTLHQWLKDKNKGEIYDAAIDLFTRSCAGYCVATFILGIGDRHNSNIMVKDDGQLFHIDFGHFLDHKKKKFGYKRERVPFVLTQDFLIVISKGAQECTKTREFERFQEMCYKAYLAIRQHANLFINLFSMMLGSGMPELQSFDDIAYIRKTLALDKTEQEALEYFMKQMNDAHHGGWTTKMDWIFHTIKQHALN

[15] = test system: MCF7; test: Antitumor activity against human MCF7 cells by MTT assay
[16] = test system: MCF7; test: Inhibition of cell viability in human MCF7 cells incubated for 48 hrs by MTT assay; assay type: functional, cell-based; conditions: MCF7, 48 h
[17] = biological target: T1, Epidermal growth factor receptor; test: Inhibition of EGFR (unknown origin) by ELISA
[18] = biological target: T1, Epidermal growth factor receptor; test: Inhibition of EGFR (unknown origin)
[19] = biological target: T2, Phosphatidylinositol 4,5-bisphosphate 3-kinase catalytic subunit alpha isoform; test: Inhibition of PI3K-alpha (unknown origin) at 100 uM relative to control
[20] = test system: MDA-MB-468; test: Anticancer activity against human MDA-MB-468 cells assessed as cell growth inhibition under normoxia at 10 uM incubated for 48 hrs by SRB assay relative to control; assay type: functional; conditions: read-out: GI
[21] = test system: MDA-MB-468; test: Anticancer activity against human MDA-MB-468 cells assessed as cell growth inhibition under hypoxia incubated for 48 hrs by SRB assay relative to control; assay type: functional
[22] = test system: MDA-MB-468; test: Anticancer activity against human MDA-MB-468 cells assessed as cell growth inhibition incubated for 48 hrs by SRB assay; assay type: functional, cell-based; conditions: MDA-MB-468, 48 h
[23] = test system: MCF7; test: Inhibition of cell proliferation of human MCF7 cells incubated for 24 hrs by MTT assay; assay type: functional, cell-based; conditions: MCF7, 24 h
[24] = test system: MDA-MB-231; test: Inhibition of cell proliferation of human MDA-MB-231 cells incubated for 24 hrs by MTT assay; assay type: functional, cell-based; conditions: MDA-MB-231, 24 h
[25] = test system: MDA-MB-231; test: Inhibition of cell survival in human MDA-MB-231 cells incubated for 72 hrs by MTT assay; assay type: functional, cell-based; conditions: MDA-MB-231, 72 h
[26] = test system: MCF7; test: Anti-proliferative activity against human MCF7 cells incubated for 72 hrs by MTT assay; assay type: functional, cell-based; conditions: MCF7, 72 h
[27] = test system: MDA-MB-231; test: Antiproliferative activity against human MDA-MB-231 cells; assay type: functional, cell-based

- IC50 [1]: 10.9 nM
Compound: CNC(=O)Nc1ncc(-c2nc(-c3ccc(CN4CCN(S(C)(=O)=O)CC4)s3)nc(N3CCOCC3)n2)cn1
- IC50 [2]: 30 nM

- IC50 [3]: 37 nM
Compound: FC(F)c1nc2ccccc2n1-c1nc(N2CCOCC2)nc(N2CCOCC2)n1 [ZSTK-474]

- IC50 [4]: 17800 nM
Compound: Cc1nc2cc(Br)c(Br)cc2c(=O)n1-c1ccc(Nc2nc(Nc3ccc(Br)cc3)nc(N3CCCCC3)n2)cc1

Compound: CN(C)c1ccc(-c2nc(N)nc(Nc3ccccc3F)n2)cc1
- IC50 [5]: > 20000 nM

Compound: COc1cc(-c2nc(N)nc(Nc3ccc(C)cc3)n2)cc(OC)c1OC
- IC50 [5]: > 20000 nM

Compound: COc1ccc(/C=N/NC(=O)Nc2ccc(-c3nc(N4CCOCC4)nc(N4CCOCC4)n3)cc2)cc1
- IC50 [6]: 520 nM

- IC50 [7]: 3760 nM
Compound: COc1ccc(Nc2nc(N3CCCC3)nc(-n3nc(C)cc3C)n2)cc1

- IC50 [8]: 4630 nM
Compound: NCc1ccc(-c2nc(N/N=C/c3ccc(Br)cc3)nc(N3CCCCC3)n2)cc1

- Ki [9]: 0.4 nM
Compound: NS(=O)(=O)c1ccc(CNc2nc(Cl)nc(Nc3ccc(O)cc3)n2)cc1

- IC50 [7]: 17500 nM
Compound: CCN(CC)c1nc(Nc2ccccc2)nc(Nc2ccc(S(=O)(=O)NC(=N)N)cc2)n1

- inhibition [10]: 96.3%
- IC50 [4]: 52200 nM
Compound: O=[N+]([O-])c1ccc(Nc2nc(NC(=S)NNc3ccnc4ccccc34)nc(Nc3ccc([N+](=O)[O-])cc3)n2)cc1

- inhibition [10]: 90.5%
- IC50 [4]: 32300 nM
Compound: CCN(CC)c1nc(NC(=S)NNc2ccnc3ccccc23)nc(N(CC)CC)n1

- IC50 [11]: 41500 nM
- inhibition [10]: 96.4%
Compound: CCOC(=O)C1=CN(c2nc(Nc3cccc(F)c3)nc(Nc3cccc(F)c3)n2)C(=S)NC1c1ccc(F)cc1 (stereo unspecified)

- IC50 [12]: 110 nM
Compound: COc1cc(OC)cc(-c2nnc(-c3coc(-c4nc(OC)nc(OC)n4)n3)o2)c1

- IC50 [7]: 2660 nM
Compound: CC1=NN(c2nc(Nc3ccc(Br)cc3)nc(-n3nc(C)cc3C)n2)C(C)C1 (stereo unspecified)

- IC50 [4]: 18400 nM
Compound: Cc1nc2cc(Br)c(Br)cc2c(=O)n1-c1ccc(Nc2nc(Nc3ccc(Cl)cc3)nc(N3CCCCC3)n2)cc1

Compound: Cc1cc(/C=N/NC(=O)Nc2ccc(-c3nc(N4CCOCC4)nc(N4CCOCC4)n3)cc2)cc(C)c1O
- IC50 [6]: 400 nM

- IC50 [8]: 3980 nM
Compound: COc1nc(N/N=C/c2ccccc2)nc(-c2ccc(N)cc2)n1

- IC50 [4]: 17200 nM
Compound: Cc1nc2cc(Br)c(Br)cc2c(=O)n1-c1ccc(Nc2nc(N3CCCCC3)nc(N3CCOCC3)n2)cc1

- IC50 [13]: 9520 nM
Compound: CNc1nc(Nn2c(C)nc3ccc(Br)cc3c2=O)nc(N2CCNCC2)n1

- IC50 [7]: 2290 nM
Compound: CC1=NN(c2nc(Nc3ccc(Cl)cc3)nc(-n3nc(C)cc3C)n2)C(C)C1 (stereo unspecified)

- IC50 [14]: 60 nM
Compound: CN(C)C(=O)C1CCC(Oc2nc(-c3cccc4[nH]ncc34)nc(N3CCOCC3)n2)CC1 (stereo unspecified)

- IC50 [15]: 2650 nM
- IC50 [1]: 69 nM
Compound: Nc1ncc(-c2nc(-c3ccc(CN4CCOCC4)s3)nc(N3CCOCC3)n2)cn1

- IC50 [16]: 12.8 nM
- IC50 [17]: 287 nM
Compound: CN(C)c1nc(Cl)nc(NC2=NN(c3ccc(Br)cc3)C(c3ccc(C(F)(F)F)cc3)C2)n1 (stereo unspecified)

- IC50 [18]: 61 nM
- IC50 [7]: 4530 nM
Compound: Cc1cc(C)n(-c2nc(Nc3ccc(Br)cc3)nc(N3CCOCC3)n2)n1

Compound: C=CCc1cc(C)cc(/C=N/NC(=O)Nc2ccc(-c3nc(N4CCOCC4)nc(N4CCOCC4)n3)cc2)c1O
- IC50 [6]: 600 nM

- IC50 [12]: 95 nM
Compound: COc1nc(OC)nc(-c2nc(-c3nnc(-c4cc([N+](=O)[O-])c(Br)c([N+](=O)[O-])c4)o3)co2)n1

- IC50 [7]: 2930 nM
Compound: COc1ccc(Nc2nc(N3CCOCC3)nc(-n3nc(C)cc3C)n2)cc1

- IC50 [7]: 18400 nM
Compound: CCN(CC)c1nc(Nc2ccc(S(=O)(=O)NC(=N)N)cc2)nc(NC2CCCCC2)n1

- IC50 [13]: 7160 nM
Compound: Cc1nc2ccc(Br)cc2c(=O)n1Nc1nc(Nc2cccc(Cl)c2)nc(N2CCNCC2)n1

- inhibition [19]: 68%
- IC50 [7]: > 100000 nM
Compound: CCN(CC)c1nc(Nc2ccc(S(=O)(=O)NC(=N)N)cc2)nc(NN2CCOCC2)n1

- IC50 [22]: 1480 nM
Compound: CN(C)c1ccc(/C=C(\C#N)c2nc(N)nc(Nc3ccc(S(N)(=O)=O)cc3)n2)cc1
- inhibition of growth at 10 µM [20]: 62%
- growth inhibition (GI) [21]: 60%

- IC50 [23]: 770 nM
- IC50 [24]: 8430 nM
Compound: COc1nc(Nc2ccc(C#N)cc2)nc(-c2ccc(N)cc2)n1

- IC50 [16]: 70.7 nM
- IC50 [17]: 229 nM
Compound: CN(C)c1nc(Cl)nc(NC2=NN(c3ccc(C(F)(F)F)cc3)C(c3ccc(C(F)(F)F)cc3)C2)n1 (stereo unspecified)

- IC50 [11]: 47400 nM
- inhibition [10]: 94.3%
Compound: CCOC(=O)C1=CN(c2nc(Nc3cccc(F)c3)nc(Nc3cccc(F)c3)n2)C(=S)NC1c1ccccc1OC (stereo unspecified)

Compound: Nc1nc(COC(=O)c2ccc([N+](=O)[O-])cc2)nc(Nc2ccccc2)n1
- IC50 [25]: 6000 nM

- IC50 [12]: 25 nM
Compound: COc1nc(OC)nc(-c2nc(-c3nnc(-c4cc(OC)c(OC)c(OC)c4)o3)co2)n1

- IC50 [15]: 1250 nM
- IC50 [1]: 48 nM
Compound: CS(=O)(=O)N1CCN(Cc2ccc(-c3nc(-c4cnc(N)nc4)nc(N4CCOCC4)n3)s2)CC1

- IC50 [26]: 1000 nM
Compound: C(=N\Nc1nc(N2CCOCC2)nc(N2CCOCC2)n1)/c1ccccc1

- IC50 [13]: 9540 nM
Compound: Cc1nc2ccc(Br)cc2c(=O)n1Nc1nc(Nc2ccc([N+](=O)[O-])cc2)nc(N2CCNCC2)n1

- IC50 [23]: 4290 nM
- IC50 [24]: 7800 nM
Compound: COc1nc(Nc2ccc(C#N)cc2)nc(N2CCOCC2)n1

- IC50 [26]: 3290 nM
Compound: NCc1ccc(-c2nc(N/N=C/c3ccc(Cl)cc3)nc(N3CCCCC3)n2)cc1

- IC50 [27]: 23100 nM
Compound: CC1CCN(c2nc(Cl)nc(Oc3ccc(-c4coc5cc(Oc6nc(Cl)nc(N7CCC(C)CC7)n6)cc(O)c5c4=O)cc3)n2)CC1

- IC50 [22]: 1480 nM
Compound: N#C/C(=C\c1cccc(F)c1)c1nc(N)nc(Nc2ccc(S(N)(=O)=O)cc2)n1
- growth inhibition (GI) [21]: 65%

- IC50 [12]: 1340 nM
Compound: COc1nc(OC)nc(-c2nc(-c3nnc(-c4cc([N+](=O)[O-])cc([N+](=O)[O-])c4)o3)co2)n1
